A short description of data set [1]: Intracolonic delivery of heparin in rats; heparin activity by activated partial thromboplastin time (APTT). The data set is classed as in vivo, Sprague-Dawley rats. As to conditions: IC. The protocol: Intracolonic dosing (IC) compositions containing delivery agent compound and heparin sodium USP in 25% aqueous propylene glycol were prepared by mixing. […] Typically, compound and heparin powders were mixed, 25% aqueous propylene glycol was added, NaOH solution was added, the contents sonicated, then diluted to a volume of 3.0. pH was checked and adjusted if necessary to pH=7-8.
The dosing solutions were administered to fasted rats at a volume dose of 1 ml/kg. Blood samples were collected by cardiac puncture following the administration of ketamine (44 mg/kg). Heparin activity was determined utilizing the activated partial thromboplastin time (APTT) according to the method of Henry, J. B., Clinical Diagnosis and Management by Laboratory Methods; Philadelphia, Pa.; W. B. Saunders (1979).

Data set [2] is described as follows: Oral delivery of rhGH in rats; serum rhGH by immunoassay. Type of data set: in vivo, Sprague-Dawley rats. How it is done: Oral gavage (PO) dosing solutions of delivery agent compound and rhGH in phosphate buffer were prepared. […] The final dosing solutions were prepared by mixing the compound solution with an rhGH stock solution (typically having a concentration of 15 mg rhGH/ml) and diluting to the desired volume (usually 3.0 ml).
The rats were administered 1 ml/kg of the dosing solution. Blood samples were collected serially from the tail artery for determination of serum rhGH concentrations. Serum rhGH concentrations were quantified by an rhGH immunoassay test kit (Kit # KIF4015 from Genzyme Corporation Inc., Cambridge, Mass.).

A short description of data set [3]: PTH delivery in rats, oral (PO) and intracolonic (IC); serum PTH by radioimmunoassay. Type of data set: in vivo, Sprague-Dawley rats. How it is done: Oral gavage (PO) or intracolonic (IC) dosing solutions of delivery agent compound and parathyroid hormone residues 1-34 (PTH) (residues 1-38 for the solution with compound 103) were prepared. […] The final dosing solutions were prepared by mixing the compound solution with a PTH stock solution (typically having a concentration of 5 mg PTH/ml) and diluting to the desired volume (usually 3.0 ml).
The rats were administered one of the dosing solutions at 1 ml/kg for PO or 0.5 ml/kg for IC. Blood samples were collected serially from the tail artery for serum determination of PTH concentration. Serum PTH concentrations were quantified by a PTH radioimmunoassay kit (Kit # RIK 6101 from Peninsula Laboratories, Inc., San Carlos, Calif.).

For data set [4] the following is noted: rat, in vivo, po, 150 mg/kg.
Protocol: (§1) Oral dosing (PO) compositions of delivery agent compound and salmon calcitonin (sCT) in water were prepared by mixing. 450 mg of compound was added to 2.0 ml of water. Either the sodium salt of the compound was used or the free acid was converted to the sodium salt by stirring the resultant solution and adding one equivalent of sodium hydroxide (1.0 N) and diluting with water. 90 μg sCT was added to the solution. Water was then added to bring the total volume to 3.0 ml. […] (For compounds 118 and 123, the solutions were diluted to 6.0 ml and the volume dose was doubled.) The total sCT concentration was 30 μg/ml.
(§2) Male Sprague-Dawley rats weighing between 200-25.0 g were fasted for 24 hours and were administered ketamine (44 mg/kg) and chlorpromazine (1.5 mg/kg) 15 minutes prior to dosing. The rats were administered 1 ml/kg of dosing solution (2 ml/kg for compounds 118 and 123). Blood samples were collected serially from the tail artery. Serum sCT was determined by testing with an EIA kit (Kit # EIAS-6003 from Peninsula Laboratories, Inc., San Carlos, Calif.). The standard protocol from the kit was modified for compounds 104 and 105 as follows: incubated with 50 μl peptide antibody for 2 hours with shaking in the dark, washed the plate, added serum and biotinylated peptide and diluted with 4 ml buffer, and shook overnight in the dark.
A short description of data set [5]: Oral delivery of salmon calcitonin (sCT) in rats; serum sCT by EIA. As to conditions: compound dose 50 mg/kg, sCT dose 25 μg/kg, modified EIA protocol.
Protocol: as §1, §2
Where [6] appears, read: compound dose 50 mg/kg, heparin dose 25 mg/kg.
[7] abbreviates: compound dose 300 mg/kg, rhGH dose 6 mg/kg.
[8] abbreviates: PO, compound dose 300 mg/kg, PTH (1-34) dose 100 μg/kg.
[9] abbreviates: compound dose 200 mg/kg, rhGH dose 3 mg/kg.
[10] abbreviates: PO, compound dose 100 mg/kg, PTH (1-34) dose 200 μg/kg.

Values joined by “and” are separate entries in the source; they are usually repeats but may differ in a detail not shown here. Identical values can stand only once. Like-named read-outs stand apart in the source and are kept apart here.

Take `Cc1cc(F)cc(C(=O)NCCCCCCCC(=O)O)c1O` [Compound 56]: in data set [1] (setting [6]), the “Mean Peak APTT” value worked out at 91 ± 75 s.

`O=C(O)CNC(=O)c1ccccc1` [Compound 110]: in data set [1] (setting [6]), the “Mean Peak APTT” value is 26.5 ± 4.7 s and 23.4 ± 0.7 s. Turning to `O=C(O)CCCCCCCCCCNC(=O)c1ccccc1F` [Compound 88], in data set [1] (setting [6]), the “Mean Peak APTT” value amounted to 59 ± 47 s. `Nc1ccc(F)cc1C(=O)Nc1ccc(CCCC(=O)O)cc1` [Compound 3]: the “Mean Peak Serum [rhGH]” value in data set [2] (setting [7]) amounted to 72 ± 45 ng/mL. The “Mean Peak Serum PTH” value in data set [3] (setting [8]) came to 222 ± 155 pg/mL. With `COc1ccc(C(=O)NCCCCCC(=O)O)c(O)c1` [Compound 107], the “Mean Peak APTT” value in data set [1] (setting [6]) was found to be 26.2 ± 6.1 s.

In the case of `COc1ccccc1C(=O)NCC(=O)O` [Compound 112], in data set [1] (setting [6]), the “Mean Peak APTT” value was determined as 28.7 ± 11.5 s. `Cc1cc(C)c(O)c(C(=O)Nc2ccc(CCCC(=O)O)cc2)c1` [Compound 14]: the “Mean Peak APTT” value in data set [1] (setting [6]) was determined as 54 ± 21 s. As to `O=C(O)CCCCCCCNC(=O)c1cc(F)cc(F)c1O` [Compound 41], in data set [1] (setting [6]), the “Mean Peak APTT” value stood at 41 ± 26 s. In the case of `CNc1ccccc1C(=O)Nc1ccc(CCCC(=O)O)cc1` [Compound 10], the “Mean Peak Serum [rhGH]” value in data set [2] (setting [9]) amounted to 43 ± 65 ng/mL. In data set [3] (setting [8]), the “Mean Peak Serum PTH” value was 420 ± 335 pg/mL. With `O=C(O)CCCCCCCCCNC(=O)c1ccccc1` [Compound 100], the “Mean Peak APTT” value in data set [1] (setting [6]) stood at 31 ± 8 s.

With `O=C(O)CCCCCCCNC(=O)c1cc(F)ccc1O` [Compound 54], the “Mean Peak APTT” value in data set [1] (setting [6]) stood at 124 ± 137 s. Further, the “Mean Peak Serum [rhGH]” value in data set [2] (setting [9]) stood at 48 ± 33 ng/mL. Take `COc1ccc(C(=O)NCCCC(=O)O)c(O)c1` [Compound 106]: the “Mean Peak APTT” value in data set [1] (setting [6]) is 48 ± 16.9 s and 27.7 ± 12.6 s.

For the compound `Cc1ccccc1C(=O)NCCCC(=O)O` [Compound 91], in data set [1] (setting [6]), the “Mean Peak APTT” value is 24 ± 4 s. For the same compound, the “Mean Peak Serum PTH” value in data set [3] (setting [10]) was determined as 5 ± 12 pg/mL.

With `COc1ccccc1C(=O)NCCCC(=O)O` [Compound 90], the “Mean Peak APTT” value in data set [1] (setting [6]) is 26 ± 7 s. Further, in data set [3] (setting [10]), the “Mean Peak Serum PTH” value was determined as 14 ± 21 pg/mL. As for `O=C(O)CCCC(=O)Nc1cc(Cl)ccc1O` [Compound 119], the “Serum sCT (pg/ml) ± SD (SE)” value in data set [4] was 95 ± 119 (53) pg/ml. As for `O=C(O)CCCc1ccc(Nc2cc(=O)oc3ccccc23)cc1` [Compound 72], the “Mean Peak APTT” value in data set [1] (setting [6]) came out at 50 ± 18 s. As for `O=C(O)CCCCCCCCCCCNC(=O)c1ccccc1F` [Compound 97], in data set [1] (setting [6]), the “Mean Peak APTT” value came out at 33 ± 10 s. On to `O=C(O)CCCNC(=O)c1ccccc1` [Compound 93], for which the “Mean Peak APTT” value in data set [1] (compound dose 25 mg/kg, heparin dose 50 mg/kg) came out at 22 ± 0 s. In addition, the “Mean Peak Serum PTH” value in data set [3] (setting [10]) worked out at 343 ± 155 pg/mL. As to `O=C(O)CCCNC(=O)c1ccccc1F` [Compound 92], in data set [1] (setting [6]), the “Mean Peak APTT” value turned out to be 22 ± 2 s. In addition, the “Mean Peak Serum PTH” value in data set [3] (setting [10]) came to 303 ± 427 pg/mL. With `O=C(O)CCCNC(=O)c1cc(Cl)ccc1O` [Compound 105], the “Serum sCT (pg/ml) ± SD (SE)” value in data set [5] was 583 ± 140 pg/mL. In the case of `Cc1ccccc1C(=O)NCC(=O)O` [Compound 111], the “Mean Peak APTT” value in data set [1] (setting [6]) came out at 24.4 ± 3.3 s.

Take `Cc1cc(Cl)cc(C(=O)NCCCCCCCC(=O)O)c1O` [Compound 55]: the “Mean Peak APTT” value in data set [1] (setting [6]) was found to be 125 ± 195 s.

As to `COc1ccc(C(=O)NCCCCCCCCCC(=O)O)c(O)c1` [Compound 108], the “Mean Peak APTT” value in data set [1] (setting [6]) amounted to 72.9 ± 28.9 s. `CNc1ccccc1C(=O)Nc1ccc(CCC(=O)O)cc1` [Compound 7]: the “Mean Peak APTT” value in data set [1] (setting [6]) stood at 59 ± 41 s. For the compound `COc1ccc(C(=O)NCCCCCCCCCCCC(=O)O)c(O)c1` [Compound 109], the “Mean Peak APTT” value in data set [1] (setting [6]) worked out at 24.2 ± 1.7 s. As for `COc1ccc(C(=O)Nc2ccc(CCCC(=O)O)cc2)c(O)c1` [Compound 104], in data set [5], the “Serum sCT (pg/ml) ± SD (SE)” value was 287 ± 104 pg/mL. Also, in data set [3] (setting [10]), the “Mean Peak Serum PTH” value was 286.35 ± 191.58 pg/mL. As for `O=C(O)CCCCCCCNC(=O)c1cc(Cl)cc(F)c1O` [Compound 45], the “Mean Peak Serum [rhGH]” value in data set [2] (setting [9]) stood at 49 ± 56 ng/mL. Take `O=C(O)CCCCCCCCCCNC(=O)c1ccccc1` [Compound 87]: the “Mean Peak APTT” value in data set [1] (setting [6]) was 21 ± 1 s and 23 ± 3 s. With `O=C(O)CCNC(=O)c1ccccc1O` [Compound 103], the “Mean Peak APTT” value in data set [1] (setting [6]) was found to be 21.9 ± 2.0 s. Also, in data set [3] (IC, compound dose 100 mg/kg, PTH residues 1-38 dose 25 μg/kg), the “Mean Peak Serum PTH” value was determined as 38.53 ± 30.9 pg/mL. Turning to `O=C(O)CCc1ccc(F)c(NC(=O)c2ccccc2O)c1` [Compound 60], the “Mean Peak APTT” value in data set [1] (setting [6]) was 71 ± 43 s. Take `O=C(O)CCCCCCCC(=O)Nc1cc(Cl)ccc1O` [Compound 122]: in data set [4], the “Serum sCT (pg/ml) ± SD (SE)” value is reported as 187 ± 79 (36) pg/ml.

As for `O=C(O)CCCCCCCCCCCNC(=O)c1ccccc1` [Compound 98], in data set [1] (setting [6]), the “Mean Peak APTT” value was 25 ± 5 s. In the case of `O=C(O)CCCCCCCCC(=O)Nc1cc(Cl)ccc1O` [Compound 123], the “Serum sCT (pg/ml) ± SD (SE)” value in data set [4] was determined as 0 pg/mL. `COc1ccc(C(=O)NCC(=O)O)c(O)c1` [Compound 102]: the “Mean Peak APTT” value in data set [1] (setting [6]) is 24.8 ± 0.9 s and 24.7 ± 6.5 s. Turning to `Nc1ccc(Cl)cc1C(=O)NCCCCCCCC(=O)O` [Compound 40], in data set [2] (setting [7]), the “Mean Peak Serum [rhGH]” value stood at 42 ± 80 ng/mL. Take `O=C(O)CCCCCNC(=O)c1ccccc1` [Compound 89]: the “Mean Peak APTT” value in data set [1] (setting [6]) was 33 ± 7 s. Besides, the “Mean Peak Serum PTH” value in data set [3] (setting [10]) is given as 27 ± 61 pg/mL. As to `O=C(O)CCCCCCCNC(=O)c1cc(Cl)cc(Br)c1O` [Compound 48], in data set [1] (setting [6]), the “Mean Peak APTT” value came to 75 ± 18 s. The same measure, in the same setting: the figure for `O=C(O)CCCCCC(=O)Nc1cc(Cl)ccc1O` [Compound 120] is 42 ± 34 s; for `O=C(O)CCCCCCCCCNC(=O)c1ccccc1F` [Compound 85] it is 27 ± 4 s. `Cc1ccccc1C(=O)NCCCCCCCCCCCC(=O)O` [Compound 95]: in data set [1] (setting [6]), the “Mean Peak APTT” value is 30 ± 2 s.

Regarding `Cc1ccccc1C(=O)NCCCCCC(=O)O` [Compound 101], the “Mean Peak APTT” value in data set [1] (setting [6]) stood at 26 ± 5 s. The same measure, in the same setting: to `O=C(O)CCCCCCCNC(=O)c1c(O)cccc1Cl` [Compound 51] belongs 111 ± 49 s; to `Cc1ccccc1C(=O)NCCCCCCCCCC(=O)O` [Compound 99], 34 ± 7 s. Same read-out and setting: the figure for `COc1ccccc1C(=O)NCCCCCCCCCCCC(=O)O` [Compound 96] is 72 ± 63 s. Consider `O=C(O)CCCCCNC(=O)c1ccccc1F` [Compound 86], for which the “Mean Peak APTT” value in data set [1] (setting [6]) was 24 ± 1 s and 31 ± 11 s. Further, the “Mean Peak Serum PTH” value in data set [3] (setting [10]) turned out to be 0 pg/mL. In the case of `O=C(O)CCCCCCCNC(=O)Cc1ccc(O)cc1` [Compound 46], in data set [1] (setting [6]), the “Mean Peak APTT” value is 52 ± 34 s. `COc1ccccc1C(=O)NCCCCCCCCCC(=O)O` [Compound 94]: the “Mean Peak APTT” value in data set [1] (setting [6]) was 50 ± 28 s. The “Mean Peak Serum PTH” value in data set [3] (setting [10]) is on record as 17 ± 38 pg/mL. Turning to `O=C(O)CNC(=O)c1ccccc1F` [Compound 113], the “Mean Peak APTT” value in data set [1] (setting [6]) amounted to 20.4 s.
